According to article PMC10489938, “Developing an Amide-Spacered Triterpenoid Rhodamine Hybrid of Nano-Molar Cytotoxicity Combined with Excellent Tumor Cell/Non-Tumor Cell Selectivity” (Molecules, 2023):
Like-named read-outs stand apart in the source and are kept apart here.

How the values were obtained:
[1] = tested on: MCF7 (breast adenocarcinoma); experiment: SRB cytotoxicity assay, MCF7; type: cell-based, human; details: Homo sapiens, MCF7, SRB assay, 72 h of treatment, cut-off 30 μM, read-out: Cytotoxicity (EC50) MCF7
Description: (§1) Sulforhodamine (SRB) assays were performed to evaluate the cytotoxicity of the compounds. First, the cytotoxicity of the different rhodamines was determined; the results of these assays are compiled in Table 1 and Table 2 and depicted in Figure 1.
(§2) Experimental equipment: as previously described biological assays were performed as previously reported employing cell lines obtained from the Department of Oncology [Martin-Luther-University Halle Wittenberg; they were bought from ATCC [2, 4, 7]]. Rhodamine 101 B, as well as asiatic acid, were obtained from local vendors and used as received.
(§3) For the SRB assay and staining experiments: as previously described.

[2] = tested on: A2780 (ovarian carcinoma); experiment: SRB cytotoxicity assay, A2780; type: cell-based, human; details: Homo sapiens, A2780, SRB assay, 72 h of treatment, cut-off 30 μM, read-out: Cytotoxicity (EC50) A2780
Description: as §1, §2, §3

[3] = tested on: HT29 (colorectal carcinoma); experiment: SRB cytotoxicity assay, HT29; type: cell-based, human; details: Homo sapiens, HT-29, SRB assay, 72 h of treatment, cut-off 30 μM, read-out: Cytotoxicity (EC50) HT29
Description: as §1, §2, §3

[4] = SRB cytotoxicity assay, NIH 3T3; type: cell-based, murine; details: mouse, NIH 3T3 non-malignant fibroblasts, cut-off 30 μM
Description: as §1, §2, §3

[5] = tested on: HeLa (cervical adenocarcinoma); experiment: SRB cytotoxicity assay, HeLa; type: cell-based, human; details: Homo sapiens, HeLa, SRB assay, 72 h of treatment, cut-off 30 μM, read-out: Cytotoxicity (EC50) HeLa
Description: as §1, §2, §3

A375 (melanoma) = experiment: SRB cytotoxicity assay, A375; type: cell-based, human; details: Homo sapiens, A-375, SRB assay, 72 h of treatment, cut-off 30 μM, read-out: Cytotoxicity (EC50) A375
Description: as §1, §2, §3

| Structure (SMILES) | EC50 ([1]; Table 1) [nM] | EC50 ([2]; Table 1) [nM] | EC50 ([3]; Table 1) [nM] | EC50 at 72 h ([4]; Table 1, 72 h of treatment) [nM] | EC50 ([5]; Table 1) [nM] | EC50 (A375 (melanoma); Table 1) [nM] | EC50 ([1]; Table 2) [nM] | EC50 ([2]; Table 2) [nM] | EC50 ([5]; Table 2) [nM] | EC50 ([3]; Table 2) [nM] | EC50 (A375 (melanoma); Table 2) [nM] | EC50 at 72 h ([4]; Table 2, 72 h of treatment) [nM] |
| --- | --- | --- | --- | --- | --- | --- | --- | --- | --- | --- | --- | --- |
| COc1cccc2c1C(=O)c1c(O)c3c(c(O)c1C2=O)C[C@@](O)(C(=O)CO)C[C@@H]3O[C@H]1C[C@H](N)[C@H](O)[C@H](C)O1 [DX, doxorubicin, reference compound] | 1100 ± 300 | 20 ± 10 | 900 ± 200 | 11900 ± 1300 | – | – | – | – | – | – | – | – |
| CCCN(CCC)c1ccc2c(-c3ccccc3C(=O)O)c3ccc(=[N+](CCC)CCC)cc-3oc2c1 [Rh3, reference compound] | 6400 ± 400 | 6700 ± 700 | 9300 ± 400 | 12000 ± 700 | 8000 ± 700 | 8200 ± 200 | – | – | – | – | – | – |
| CCCCN(CCCC)c1ccc2c(-c3ccccc3C(=O)O)c3ccc(=[N+](CCCC)CCCC)cc-3oc2c1 [Rh4, reference compound] | 3080 ± 60 | 3400 ± 100 | 4900 ± 300 | 4300 ± 100 | 4300 ± 300 | 4300 ± 100 | – | – | – | – | – | – |
| O=C(O)c1ccccc1C1=c2cc3c4c(c2Oc2c1cc1c5c2CCCN5CCC1)CCC[N+]=4CCC3 [Rh5, rhodamine 101, reference compound] | 8200 ± 800 | 8000 ± 1500 | 18500 ± 1800 | 11900 ± 1300 | 11800 ± 1100 | 11200 ± 1800 | – | – | – | – | – | – |
| CC(=O)OC[C@@]1(C)C2CC[C@]3(C)[C@H](CC=C4[C@@H]5[C@@H](C)[C@H](C)CC[C@]5(C(=O)N5CCN(C(=O)c6ccccc6-c6c7ccc(=[N+](C)C)cc-7oc7cc(N(C)C)ccc67)CC5)CC[C@]43C)[C@@]2(C)C[C@@H](OC(C)=O)[C@@H]1OC(C)=O (stereo partly drawn) [compound 6, (2α,3β,4α)-9-[2-{[4-(2,3,23-Tris(acetyloxy)-urs-12-en-28-oyl)-Piperazinyl]Carbonyl}Phenyl]-3,6-bis(Dimethylamino)-Xanthylium Chloride] | – | – | – | – | – | – | 150 ± 30 | 43 ± 8 | 700 ± 200 | 230 ± 80 | 150 ± 8 | 550 ± 60 |
| CCN(CC)c1ccc2c(-c3ccccc3C(=O)N3CCN(C(=O)[C@]45CC[C@@H](C)[C@H](C)[C@H]4C4=CC[C@@H]6[C@@]7(C)C[C@@H](OC(C)=O)[C@H](OC(C)=O)[C@@](C)(COC(C)=O)C7CC[C@@]6(C)[C@]4(C)CC5)CC3)c3ccc(=[N+](CC)CC)cc-3oc2c1 (stereo partly drawn) [compound 7] | – | – | – | – | – | – | 34 ± 9 | 5.6 ± 0.6 | 200 ± 100 | 26 ± 9 | 27 ± 9 | 330 ± 80 |
| CCCN(CCC)c1ccc2c(-c3ccccc3C(=O)N3CCN(C(=O)[C@]45CC[C@@H](C)[C@H](C)[C@H]4C4=CC[C@@H]6[C@@]7(C)C[C@@H](OC(C)=O)[C@H](OC(C)=O)[C@@](C)(COC(C)=O)C7CC[C@@]6(C)[C@]4(C)CC5)CC3)c3ccc(=[N+](CCC)CCC)cc-3oc2c1 (stereo partly drawn) [compound 8, (2α,3β,4α)-9-[2-{[4-(2,3,23-Tris(Acetyloxy)-urs-12-en-28-oyl)-Piperazinyl]Carbonyl}Phenyl]-3,6-Bis(Dipropylamino)-Xanthylium Chloride] | – | – | – | – | – | – | 34 ± 5 | 5.5 ± 0.5 | 160 ± 50 | 31 ± 7 | 32 ± 3 | 440 ± 90 |
| CCCCN(CCCC)c1ccc2c(-c3ccccc3C(=O)N3CCN(C(=O)[C@]45CC[C@@H](C)[C@H](C)[C@H]4C4=CC[C@@H]6[C@@]7(C)C[C@@H](OC(C)=O)[C@H](OC(C)=O)[C@@](C)(COC(C)=O)C7CC[C@@]6(C)[C@]4(C)CC5)CC3)c3ccc(=[N+](CCCC)CCCC)cc-3oc2c1 (stereo partly drawn) [compound 9, (2α,3β,4α)-9-[2-{[4-(2,3,23-Tris(Acetyloxy)-urs-12-en-28-oyl)-Piperazinyl]Carbonyl}Phenyl]-3,6-Bis(Dibutylamino)-Xanthylium Chloride] | – | – | – | – | – | – | 50 ± 10 | 4.9 ± 0.7 | 210 ± 50 | 26 ± 8 | 16 ± 3 | 400 ± 100 |
| CC(=O)OC[C@@]1(C)C2CC[C@]3(C)[C@H](CC=C4[C@@H]5[C@@H](C)[C@H](C)CC[C@]5(C(=O)N5CCN(C(=O)c6ccccc6C6=c7cc8c9c(c7Oc7c6cc6c%10c7CCCN%10CCC6)CCC[N+]=9CCC8)CC5)CC[C@]43C)[C@@]2(C)C[C@@H](OC(C)=O)[C@@H]1OC(C)=O (stereo partly drawn) [compound 10] | – | – | – | – | – | – | 50 ± 10 | 9 ± 2 | 220 ± 50 | 50 ± 20 | 45 ± 4 | 250 ± 50 |
| CC(=O)OC[C@@]1(C)C2CC[C@]3(C)[C@H](CC=C4[C@@H]5[C@@H](C)[C@H](C)CC[C@]5(C(=O)N5CCCN(C(=O)c6ccccc6-c6c7ccc(=[N+](C)C)cc-7oc7cc(N(C)C)ccc67)CC5)CC[C@]43C)[C@@]2(C)C[C@@H](OC(C)=O)[C@@H]1OC(C)=O (stereo partly drawn) [compound 11, (2α,3β,4α)-9-[2-{[4-(2α,3β,23-Tris(Acetyloxy)-urs-12-en-28-oyl)-Homopiperazinyl]Carbonyl}Phenyl]-3,6-Bis(Dimethylamino)-Xanthylium Chloride] | – | – | – | – | – | – | 28 ± 5 | 3.2 ± 0.4 | 400 ± 100 | 20 ± 10 | 39 ± 3 | 300 ± 100 |
| CCN(CC)c1ccc2c(-c3ccccc3C(=O)N3CCCN(C(=O)[C@]45CC[C@@H](C)[C@H](C)[C@H]4C4=CC[C@@H]6[C@@]7(C)C[C@@H](OC(C)=O)[C@H](OC(C)=O)[C@@](C)(COC(C)=O)C7CC[C@@]6(C)[C@]4(C)CC5)CC3)c3ccc(=[N+](CC)CC)cc-3oc2c1 (stereo partly drawn) [compound 12, (2α,3β,4α)-9-[2-{[4-(2α,3β,23-Tris(Acetyloxy)-urs-12-en-28-oyl)-Homopiperazinyl]Carbonyl}Phenyl]-3,6-Bis(Diethylamino)-Xanthylium Chloride] | – | – | – | – | – | – | 7.1 ± 2.1 | 0.8 ± 0.1 | 17.7 ± 4.9 | 5.5 ± 2.3 | – | 65 ± 26.2 |
| CCCN(CCC)c1ccc2c(-c3ccccc3C(=O)N3CCCN(C(=O)[C@]45CC[C@@H](C)[C@H](C)[C@H]4C4=CC[C@@H]6[C@@]7(C)C[C@@H](OC(C)=O)[C@H](OC(C)=O)[C@@](C)(COC(C)=O)C7CC[C@@]6(C)[C@]4(C)CC5)CC3)c3ccc(=[N+](CCC)CCC)cc-3oc2c1 (stereo partly drawn) [compound 13, (2α,3β,4α)-9-[2-{[4-(2α,3β,23-Tris(Acetyloxy)-urs-12-en-28-oyl)-Homopiperazinyl]Carbonyl}Phenyl]-3,6-Bis(Dipropylamino)-Xanthylium Chloride] | – | – | – | – | – | – | 10 ± 1 | 1.1 ± 0.1 | 41 ± 9 | 6 ± 1 | 3.9 ± 0.6 | 100 ± 50 |
| CCCCN(CCCC)c1ccc2c(-c3ccccc3C(=O)N3CCCN(C(=O)[C@]45CC[C@@H](C)[C@H](C)[C@H]4C4=CC[C@@H]6[C@@]7(C)C[C@@H](OC(C)=O)[C@H](OC(C)=O)[C@@](C)(COC(C)=O)C7CC[C@@]6(C)[C@]4(C)CC5)CC3)c3ccc(=[N+](CCCC)CCCC)cc-3oc2c1 (stereo partly drawn) [compound 14, (2α,3β,4α)-9-[2-{[4-(2α,3β,23-Tris(Acetyloxy)-urs-12-en-28-oyl)-Homopiperazinyl]Carbonyl}Phenyl]-3,6-Bis(Dibutylamino)-Xanthylium Chloride] | – | – | – | – | – | – | 49 ± 6 | 4.5 ± 0.4 | 150 ± 50 | 25 ± 5 | 14 ± 1 | 200 ± 100 |
| CC(=O)OC[C@@]1(C)C2CC[C@]3(C)[C@H](CC=C4[C@@H]5[C@@H](C)[C@H](C)CC[C@]5(C(=O)N5CCCN(C(=O)c6ccccc6C6=c7cc8c9c(c7Oc7c6cc6c%10c7CCCN%10CCC6)CCC[N+]=9CCC8)CC5)CC[C@]43C)[C@@]2(C)C[C@@H](OC(C)=O)[C@@H]1OC(C)=O (stereo partly drawn) [compound 15] | – | – | – | – | – | – | 19 ± 6 | 3.1 ± 0.5 | 80 ± 30 | 10 ± 6 | 8 ± 1 | 140 ± 50 |
